Laboratory results taken from patent US10323026B2, “Heterocyclic compound” (Takeda Pharmaceutical Company Limited, priority 2016, dated 2019).

Target: T1, His-hMAGL (recombinant polyhistidine tagged human MAGL protein) (Homo sapiens, UniProt Q99685)
T1 construct: polyhistidine (His) (N); made in house; host or cells: E. coli BL21(DE3)
T1 sequence (Q99685 1-303): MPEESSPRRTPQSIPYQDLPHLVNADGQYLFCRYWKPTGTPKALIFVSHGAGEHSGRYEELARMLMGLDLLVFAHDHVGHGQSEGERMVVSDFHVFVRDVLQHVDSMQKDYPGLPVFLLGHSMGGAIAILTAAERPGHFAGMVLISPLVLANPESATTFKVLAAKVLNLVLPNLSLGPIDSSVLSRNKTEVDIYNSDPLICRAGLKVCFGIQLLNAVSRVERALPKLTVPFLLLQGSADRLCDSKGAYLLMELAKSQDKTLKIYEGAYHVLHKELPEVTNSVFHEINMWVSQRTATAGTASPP
Test: Measurement of MAGL inhibitory activity (RapidFire-mass spectrometry of arachidonic acid produced from 2-arachidonylglycerol)
Format: biochemical
Conditions: test compound 10 μM; His-hMAGL; substrate 2-arachidonylglycerol; 60 min preincubation; read-out: % inhibition (10 μM)
How it was run: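 After quenching with acetonitrile containing 3 μM arachidonic acid-d8, the arachidonic acid formed was measured by online SPE RapidFire-MS/MS in negative SRM mode and corrected against the d8 standard. Inhibition (%) was calculated relative to compound-free and enzyme-free groups.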

Row | inhibition at 10 µM [%] | SMILES
1 | 100 | O=C1N[C@]2(CO1)C[C@H](C(=O)N1CC(CC(F)(F)c3ccc(F)c(C(F)(F)F)c3)C1)C2 [Example 100, (2s,4s)-2-((3-(2,2-difluoro-2-(4-fluoro-3-(trifluoromethyl)phenyl)ethyl)azetidin-1-yl)carbonyl)-7-oxa-5-azaspiro[3.4]octan-6-one]
2 | 100 | O=C1N[C@]2(CO1)C[C@H](C(=O)N1CC(OCc3cc(F)c(C(F)(F)F)cc3F)C1)C2 [Example 101, (2s,4s)-2-((3-((2,5-difluoro-4-(trifluoromethyl)benzyl)oxy)azetidin-1-yl)carbonyl)-7-oxa-5-azaspiro[3.4]octan-6-one]
3 | 100 | O=C1N[C@]2(CO1)C[C@H](C(=O)N1CC(OCc3ccc(C(F)(F)F)c(Cl)c3F)C1)C2 [Example 102, (2s,4s)-2-((3-((3-chloro-2-fluoro-4-(trifluoromethyl)benzyl)oxy)azetidin-1-yl)carbonyl)-7-oxa-5-azaspiro[3.4]octan-6-one]
4 | 100 | O=C1N[C@]2(CO1)C[C@H](C(=O)N1CC(OCc3cc(Cl)c(F)c(Cl)c3)C1)C2 [Example 106, (2s,4s)-2-((3-((3,5-dichloro-4-fluorobenzyl)oxy)azetidin-1-yl)carbonyl)-7-oxa-5-azaspiro[3.4]octan-6-one]
5 | 100 | O=C1N[C@]2(CO1)C[C@H](C(=O)N1CC(CC(F)(F)c3ccc(C(F)(F)F)c(Cl)c3)C1)C2 [Example 110, (2s,4s)-2-((3-(2-(3-chloro-4-(trifluoromethyl)phenyl)-2,2-difluoroethyl)azetidin-1-yl)carbonyl)-7-oxa-5-azaspiro[3.4]octan-6-one]
6 | 100 | O=C1N[C@]2(CO1)C[C@H](C(=O)N1CC(OCc3cc(C(F)(F)F)cc(C(F)(F)F)c3)C1)C2 [Example 113, (2s,4s)-2-((3-((3,5-bis(trifluoromethyl)benzyl)oxy)azetidin-1-yl)carbonyl)-7-oxa-5-azaspiro[3.4]octan-6-one]
7 | 100 | Cc1cc(COC2CN(C(=O)[C@H]3C[C@]4(COC(=O)N4)C3)C2)c(F)cc1C(F)(F)F [Example 115, (2s,4s)-2-((3-((2-fluoro-5-methyl-4-(trifluoromethyl)benzyl)oxy)azetidin-1-yl)carbonyl)-7-oxa-5-azaspiro[3.4]octan-6-one]
8 | 100 | O=C1N[C@]2(CO1)C[C@H](C(=O)N1CC(OCc3ccc(OC(F)(F)F)c(Cl)c3)C1)C2 [Example 116, (2s,4s)-2-((3-((3-chloro-4-(trifluoromethoxy)benzyl)oxy)azetidin-1-yl)carbonyl)-7-oxa-5-azaspiro[3.4]octan-6-one]
9 | 100 | O=C1N[C@]2(CO1)C[C@H](C(=O)N1CC(CC(F)(F)c3ccc(C(F)(F)F)cc3Cl)C1)C2 [Example 117, (2s,4s)-2-((3-(2-(2-chloro-4-(trifluoromethyl)phenyl)-2,2-difluoroethyl)azetidin-1-yl)carbonyl)-7-oxa-5-azaspiro[3.4]octan-6-one]
10 | 100 | O=C1N[C@]2(CO1)C[C@H](C(=O)N1CC(CC(F)(F)c3ccc(Cl)c(C(F)(F)F)c3)C1)C2 [Example 118, (2s,4s)-2-((3-(2-(4-chloro-3-(trifluoromethyl)phenyl)-2,2-difluoroethyl)azetidin-1-yl)carbonyl)-7-oxa-5-azaspiro[3.4]octan-6-one]
11 | 99 | Cc1ccc(COC2CN(C(=O)[C@H]3C[C@@]4(COC(=O)N4)C3)C2)cc1Cl [Example 123, (2r,4r)-2-((3-((3-chloro-4-methylbenzyl)oxy)azetidin-1-yl)carbonyl)-7-oxa-5-azaspiro[3.4]octan-6-one]

More lines, now with the values behind:

Row | SMILES | inhibition at 10 µM [%]
12 | O=C1N[C@]2(CO1)C[C@H](C(=O)N1CC(CC(F)(F)c3ccc(C(F)(F)F)c(F)c3F)C1)C2 [Example 103, (2s,4s)-2-((3-(2-(2,3-difluoro-4-(trifluoromethyl)phenyl)-2,2-difluoroethyl)azetidin-1-yl)carbonyl)-7-oxa-5-azaspiro[3.4]octan-6-one] | 100
13 | O=C1N[C@]2(CO1)C[C@H](C(=O)N1CC(/C=C(\F)c3ccc(C(F)(F)F)c(F)c3F)C1)C2 [Example 104, (2s,4s)-2-((3-((Z)-2-(2,3-difluoro-4-(trifluoromethyl)phenyl)-2-fluorovinyl)azetidin-1-yl)carbonyl)-7-oxa-5-azaspiro[3.4]octan-6-one] | 100
14 | Cc1ccc(C(F)(F)CC2CN(C(=O)[C@H]3C[C@]4(COC(=O)N4)C3)C2)cc1Cl [Example 109, (2s,4s)-2-((3-(2-(3-chloro-4-methylphenyl)-2,2-difluoroethyl)azetidin-1-yl)carbonyl)-7-oxa-5-azaspiro[3.4]octan-6-one] | 99
15 | O=C1N[C@]2(CO1)C[C@H](C(=O)N1CC(/C=C(\F)c3ccc(C(F)(F)F)c(Cl)c3)C1)C2 [Example 111, (2s,4s)-2-((3-((Z)-2-(3-chloro-4-(trifluoromethyl)phenyl)-2-fluorovinyl)azetidin-1-yl)carbonyl)-7-oxa-5-azaspiro[3.4]octan-6-one] | 100
16 | O=C1N[C@]2(CO1)C[C@H](C(=O)N1CCC(C(F)(F)c3ccc(F)cc3Cl)CC1)C2 [Example 112, (2s,4s)-2-((4-((2-chloro-4-fluorophenyl)(difluoro)methyl)piperidin-1-yl)carbonyl)-7-oxa-5-azaspiro[3.4]actan-6-one] | 100
17 | Cc1ccc(COCC2CN(C(=O)[C@H]3C[C@]4(COC(=O)N4)C3)C2)cc1Cl [Example 120, (2s,4s)-2-((3-(((3-chloro-4-methylbenzyl)oxy)methyl)azetidin-1-yl)carbonyl)-7-oxa-5-azaspiro[3.4]octan-6-one] | 100
18 | Cc1cc(COCC2CN(C(=O)[C@H]3C[C@]4(COC(=O)N4)C3)C2)ccc1Cl [Example 121, (2s,4s)-2-((3-(((4-chloro-3-methylbenzyl)oxy)methyl)azetidin-1-yl)carbonyl)-7-oxa-5-azaspiro[3.4]octan-6-one] | 101
19 | N#Cc1cc(C(F)(F)F)ccc1OCC1CCN(C(=O)[C@H]2C[C@]3(COC(=O)N3)C2)CC1 [Example 128, 2-((1-(((2s,4s)-6-oxo-7-oxa-5-azaspiro[3.4]oct-2-yl)carbonyl)piperidin-4-yl)methoxy)-5-(trifluoromethyl)benzonitrile] | 100
20 | N#Cc1cc(Cl)ccc1OCC1CCN(C(=O)[C@H]2C[C@]3(COC(=O)N3)C2)CC1 [Example 129, 5-chloro-2-((1-(((2s,4s)-6-oxo-7-oxa-5-azaspiro[3.4]oct-2-yl)carbonyl)piperidin-4-yl)methoxy)benzonitrile] | 100
21 | N#Cc1ccc(OCC2CCN(C(=O)[C@H]3C[C@]4(COC(=O)N4)C3)CC2)c(Cl)c1 [Example 130, 3-chloro-4-((1-(((2s,4s)-6-oxo-7-oxa-5-azaspiro[3.4]oct-2-yl)carbonyl)piperidin-4-yl)methoxy)benzonitile] | 100
